Measured values taken from PMC12028158, “Synthesis and In Vitro Evaluation of the Anticancer Effect of Novel Phosphonium Vindoline Derivatives” (International Journal of Molecular Sciences, 2025).
Read-outs that look alike come from different tables or passages of the source.

Experiments:
Type in all cases: cell-based
TK-10 [1] = test: NCI60 five-dose screen; settings: Homo sapiens
UO-31 = test: NCI60 five-dose screen; settings: Homo sapiens
[2] = test system: Non-small Cell Lung Cancer panel; test: NCI60 five-dose screen, panel mean; settings: Homo sapiens, read-out: GI50 Mean
Colon Cancer panel = test: NCI60 five-dose screen, panel mean; settings: Homo sapiens, read-out: GI50 Mean
SNB-75 [3] = test: NCI60 one-dose screen; settings: Homo sapiens
SF-268 = test: NCI60 five-dose screen; settings: Homo sapiens
MDA-MB231ATCC = test: NCI60 five-dose screen; settings: Homo sapiens, MDA-MB-231
HCT-116 = test: NCI60 five-dose screen; settings: Homo sapiens
NCI/ADR-RES = test: NCI60 five-dose screen; settings: Homo sapiens
KM12 = test: NCI60 one-dose screen; settings: Homo sapiens
SF-539 = test: NCI60 one-dose screen; settings: Homo sapiens
NCI-H322M = test: NCI60 five-dose screen; settings: Homo sapiens
NCI-H522 [4] = test: NCI60 five-dose screen; settings: Homo sapiens
CCRF-CEM = test: NCI60 one-dose screen; settings: Homo sapiens, read-out: Growth percent
K-562 [5] = test: NCI60 five-dose screen; settings: Homo sapiens, K562; K-562, Leukemia; read-out: GI50
SW-620 = test: NCI60 one-dose screen; settings: Homo sapiens
K-562 [6] = test: NCI60 one-dose screen; settings: Homo sapiens
U251 = test: NCI60 five-dose screen; settings: Homo sapiens
SK-OV-3 [7] = test: NCI60 one-dose screen; settings: Homo sapiens
A549/ATCC = test: NCI60 one-dose screen; settings: Homo sapiens
Melanoma panel = test: NCI60 five-dose screen, panel mean; settings: Homo sapiens, read-out: GI50 Mean
NCI-H522 [8] = test: NCI60 one-dose screen; settings: Homo sapiens
SK-MEL-2 = test: NCI60 five-dose screen; settings: Homo sapiens
OVCAR-4 = test: NCI60 one-dose screen; settings: Homo sapiens
[9] = test system: 60 human tumor cell lines (NCI60); test: NCI60 five-dose screen, overall mean
M14 = test: NCI60 five-dose screen; settings: Homo sapiens
MDA-MB-435 = test: NCI60 five-dose screen; settings: Homo sapiens
Prostate Cancer panel = test: NCI60 five-dose screen, panel mean; settings: Homo sapiens, read-out: GI50 Mean
SNB-75 [10] = test: NCI60 five-dose screen; settings: Homo sapiens
TK-10 [11] = test: NCI60 one-dose screen; settings: Homo sapiens
PC-3 = test: NCI60 five-dose screen; settings: Homo sapiens
IGROV1 = test: NCI60 five-dose screen; settings: Homo sapiens, IGROV-1
HCC-2998 = test: NCI60 one-dose screen; settings: Homo sapiens
UACC-257 = test: NCI60 one-dose screen; settings: Homo sapiens
SK-OV-3 [12] = test: NCI60 five-dose screen; settings: Homo sapiens
SN12C = test: NCI60 five-dose screen; settings: Homo sapiens
ACHN = test: NCI60 five-dose screen; settings: Homo sapiens
SF-295 = test: NCI60 five-dose screen; settings: Homo sapiens

CCC12C=CCN3CCC4(c5ccc(OC)cc5N(C)C4C(O)(C(=O)OC)C1OC(=O)c1ccc(C[P+](c4ccccc4)(c4ccccc4)c4ccccc4)cc1)C32 (stereo not drawn) [compound 12]
GI50 (TK-10 [1]; TK-10, Renal Cancer, read-out: GI50): 2840 nM
GI50 (UO-31; UO-31, Renal Cancer, read-out: GI50): 20000 nM
GI50 ([2]; mean over Non-small Cell Lung Cancer panel): 2050 nM
GI50 (Colon Cancer panel; mean over Colon Cancer panel): 4690 nM
activity at 10 µM (SNB-75 [3]; SNB-75, 10 μM, one-dose, read-out: Growth percent): -61.7%
GI50 (SF-268; SF-268, CNS Cancer, read-out: GI50): 1280 nM
GI50 (MDA-MB231ATCC; MDA-MB231ATCC, Breast Cancer, read-out: GI50): 686 nM
GI50 (HCT-116; HCT-116, Colon Cancer, read-out: GI50): 1590 nM
GI50 (NCI/ADR-RES; Ovarian Cancer, read-out: GI50): > 100000 nM
activity at 10 µM (KM12; KM12, 10 μM, one-dose, read-out: Growth percent): -65.8%
activity at 10 µM (SF-539; SF-539, 10 μM, one-dose, read-out: Growth percent): -90.6%
GI50 (NCI-H322M; Non-small Cell Lung Cancer, read-out: GI50): 4760 nM
GI50 (NCI-H522 [4]; NCI-H522, Non-small Cell Lung Cancer, read-out: GI50): 491 nM
activity at 10 µM (CCRF-CEM; 10 μM, one-dose): -46.4%
GI50 (K-562 [5]): 448 nM
activity at 10 µM (SW-620; SW-620, 10 μM, one-dose, read-out: Growth percent): -66%
activity at 10 µM (K-562 [6]; K562, K-562, 10 μM, one-dose, read-out: Growth percent): -54.9%
GI50 (U251; U-251, U251, CNS Cancer, read-out: GI50): 644 nM
activity at 10 µM (SK-OV-3 [7]; SK-OV-3, 10 μM, one-dose, read-out: Growth percent): -13.2%
activity at 10 µM (A549/ATCC; A549/ATCC, 10 μM, one-dose, read-out: Growth percent): 31%
GI50 (Melanoma panel; mean over Melanoma panel): 1030 nM
activity at 10 µM (NCI-H522 [8]; NCI-H522, 10 μM, one-dose, read-out: Growth percent): -17.4%
GI50 (SK-MEL-2; SK-MEL-2, SK-MEL-2, Melanoma, read-out: GI50): 1270 nM
activity at 10 µM (OVCAR-4; OVCAR-4, 10 μM, one-dose, read-out: Growth percent): 7.65%
GI50 ([9]; mean over all 60 human cancer cell lines, read-out: GI50 Mean): 4320 nM
GI50 (M14; M14, Melanoma, read-out: GI50): 1350 nM
GI50 (MDA-MB-435; MDA-MB-435, Melanoma, read-out: GI50): 483 nM
GI50 (Prostate Cancer panel; mean over Prostate Cancer panel): 1130 nM
GI50 (SNB-75 [10]; SNB-75, CNS Cancer, read-out: GI50): 1110 nM
activity at 10 µM (TK-10 [11]; TK-10, 10 μM, one-dose, read-out: Growth percent): 21.4%
GI50 (PC-3; PC-3, Prostate Cancer, read-out: GI50): 657 nM
GI50 (IGROV1; IGROV1, Ovarian Cancer, read-out: GI50): 885 nM
activity at 10 µM (HCC-2998; HCC-2998, 10 μM, one-dose, read-out: Growth percent): -74.6%
activity at 10 µM (UACC-257; UACC-257, 10 μM, one-dose, read-out: Growth percent): -67.6%
GI50 (SK-OV-3 [12]; SK-OV-3, Ovarian Cancer, read-out: GI50): 2700 nM
GI50 (SN12C; Renal Cancer, read-out: GI50): 708 nM
GI50 (ACHN; Renal Cancer, read-out: GI50): 18500 nM
GI50 (SF-295; SF-295, CNS Cancer, read-out: GI50): 2920 nM

CC[C@]12C=CCN3CC[C@@]4(c5ccc(OC)cc5N(C)[C@H]4[C@@](O)(C(=O)OC)[C@@H]1OC(=O)CCCC[P+](c1ccccc1)(c1ccccc1)c1ccccc1)[C@@H]32 [compound 4, reference compound]
GI50 (TK-10 [1]; TK-10): 2820 nM
GI50 (UO-31; UO-31): 12200 nM
GI50 [2]: 1440 nM
GI50 (Colon Cancer panel): 3190 nM
activity at 10 µM (SNB-75 [3]; SNB-75, read-out: Growth percent): -12.8%
GI50 (SF-268; SF-268): 634 nM
GI50 (MDA-MB231ATCC): 370 nM
GI50 (HCT-116; HCT-116): 1060 nM
GI50 (NCI/ADR-RES): > 100000 nM
activity at 10 µM (KM12; KM12, read-out: Growth percent): 3.15%
activity at 10 µM (SF-539; SF-539, read-out: Growth percent): 19%
GI50 (NCI-H322M): 3000 nM
GI50 (NCI-H522 [4]; NCI-H522): 229 nM
activity at 10 µM (CCRF-CEM): 15.6%
activity at 10 µM (SW-620; SW-620, read-out: Growth percent): 29.4%
activity at 10 µM (K-562 [6]; K562, read-out: Growth percent): 21.7%
GI50 (U251; U-251): 312 nM
activity at 10 µM (SK-OV-3 [7]; SK-OV-3, read-out: Growth percent): -2.96%
activity at 10 µM (A549/ATCC; A549, read-out: Growth percent): 22.1%
GI50 (Melanoma panel): 750 nM
activity at 10 µM (NCI-H522 [8]; NCI-H522, read-out: Growth percent): -5.5%
GI50 (SK-MEL-2; SK-MEL-2): 279 nM
activity at 10 µM (OVCAR-4; OVCAR-4, read-out: Growth percent): 5.22%
GI50 ([9]; read-out: GI50 Mean, mean over all 60 human cancer cell lines): 3520 nM
GI50 (M14; M14): 1790 nM
GI50 (MDA-MB-435; MDA-MB-435): 357 nM
GI50 (Prostate Cancer panel): 570 nM
GI50 (SNB-75 [10]; SNB-75): 221 nM
activity at 10 µM (TK-10 [11]; TK-10, read-out: Growth percent): 48.6%
GI50 (PC-3; PC-3): 369 nM
GI50 (IGROV1): 553 nM
activity at 10 µM (HCC-2998; HCC 2998, read-out: Growth percent): 15.9%
activity at 10 µM (UACC-257; UACC-257, read-out: Growth percent): 2.15%
GI50 (SK-OV-3 [12]; SK-OV-3): 725 nM
GI50 (SN12C): 467 nM
GI50 (ACHN): 14600 nM
GI50 (SF-295; SF-295): 2750 nM
